Experimental findings from patent publication US10189816B2, “Substituted pyridines as inhibitors of human immunodeficiency virus replication” (priority 2015, dated 2019) are described below.

For the test, the system named is NL-RLuc virus. Briefly: Inhibition of HIV replication (NL-RLuc reporter virus in MT-2 cells, luciferase readout). Format: cell-based. The following applies: Human immunodeficiency virus 1, MT2, 120 h. The essentials: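 Antiviral EC50 came from luciferase signal after 5-day multicycle replication of NL-RLuc virus in MT-2 cells with serially diluted compound (RPMI 1640, 10% heat-inactivated FBS), fitted by the median effect equation over at least 2 experiments.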

Structures are written as SMILES. Read-outs that look alike come from different tables or passages of the source.

`COc1ccc(C(F)(F)F)cc1CN1CCc2cc(-c3c(C)nc(C)c([C@H](OC(C)(C)C)C(=O)O)c3N3CCC(C)(C)CC3)ccc2C1` [Compound 151, (S)-2-(tert-butoxy)-2-(4-(4,4-dimethylpiperidin-1-yl)-5-(2-(2-methoxy-5-(trifluoromethyl)benzyl)-1,2,3,4-tetrahydroisoquinolin-6-yl)-2,6-dimethylpyridin-3-yl)acetic acid]: the EC50 (read-out: Activity) was < 0.1 µM.

In the case of `Cc1nc(C)c([C@H](OC(C)(C)C)C(=O)O)c(N2CCC(C)(C)CC2)c1-c1ccc2c(c1)CCN(Cc1ccccc1OC(C)C)C2` [Compound 152, (S)-2-(tert-butoxy)-2-(4-(4,4-dimethylpiperidin-1-yl)-5-(2-(2-isopropoxybenzyl)-1,2,3,4-tetrahydroisoquinolin-6-yl)-2,6-dimethylpyridin-3-yl)acetic acid], the EC50 (read-out: Activity) is < 0.1 µM.

Regarding `Cc1nc(C)c([C@H](OC(C)(C)C)C(=O)O)c(N2CCC(C)(C)CC2)c1-c1ccc2c(c1)CCN(Cc1ccccc1OCC(C)C)C2` [Compound 153, (S)-2-(tert-butoxy)-2-(4-(4,4-dimethylpiperidin-1-yl)-5-(2-(2-isobutoxybenzyl)-1,2,3,4-tetrahydroisoquinolin-6-yl)-2,6-dimethylpyridin-3-yl)acetic acid], the EC50 (read-out: Activity) was < 0.1 µM.

As to `Cc1nc(C)c([C@H](OC(C)(C)C)C(=O)O)c(N2CCC(C)(C)CC2)c1-c1ccc2c(c1)CCN(Cc1cccc(OC(C)C)c1)C2` [Compound 154, (S)-2-(tert-butoxy)-2-(4-(4,4-dimethylpiperidin-1-yl)-5-(2-(3-isopropoxybenzyl)-1,2,3,4-tetrahydroisoquinolin-6-yl)-2,6-dimethylpyridin-3-yl)acetic acid], under “read-out: Activity”, the EC50 is < 0.1 µM.

Turning to `Cc1nc(C)c([C@H](OC(C)(C)C)C(=O)O)c(N2CCC(C)(C)CC2)c1-c1ccc2c(c1)CCN(Cc1ccc3c(c1)CCCO3)C2` [Compound 155, (S)-2-(tert-butoxy)-2-(5-(2-(chroman-6-ylmethyl)-1,2,3,4-tetrahydroisoquinolin-6-yl)-4-(4,4-dimethylpiperidin-1-yl)-2,6-dimethylpyridin-3-yl)acetic acid], the EC50 (read-out: Activity) was < 0.1 µM.

On to `Cc1nc(C)c([C@H](OC(C)(C)C)C(=O)O)c(N2CCC(C)(C)CC2)c1-c1ccc2c(c1)CCN(Cc1ccc3c(c1)OCCO3)C2` [Compound 156, (S)-2-(tert-butoxy)-2-(5-(2-((2,3-dihydrobenzo[b][1,4]dioxin-6-yl)methyl)-1,2,3,4-tetrahydroisoquinolin-6-yl)-4-(4,4-dimethylpiperidin-1-yl)-2,6-dimethylpyridin-3-yl)acetic acid], for which the EC50 reads like this: (read-out: Activity) < 0.1 µM; (read-out: EC50 μM) 0.008 µM.

As to `Cc1nc(C)c([C@H](OC(C)(C)C)C(=O)O)c(N2CCC(C)(C)CC2)c1-c1ccc2c(c1)CCN(Cc1ccc(OC(F)F)c(OC(F)F)c1)C2` [Compound 157, (S)-2-(5-(2-(3,4-bis(difluoromethoxy)benzyl)-1,2,3,4-tetrahydroisoquinolin-6-yl)-4-(4,4-dimethylpiperidin-1-yl)-2,6-dimethylpyridin-3-yl)-2-(tert-butoxy)acetic acid], for the setting “read-out: Activity”, the EC50 is < 0.1 µM.

With `Cc1nc(C)c([C@H](OC(C)(C)C)C(=O)O)c(N2CCC(C)(C)CC2)c1-c1ccc2c(c1)CCN(Cc1cccc3c1OCCO3)C2` [Compound 158, (S)-2-(tert-butoxy)-2-(5-(2-((2,3-dihydrobenzo[b][1,4]dioxin-5-yl)methyl)-1,2,3,4-tetrahydroisoquinolin-6-yl)-4-(4,4-dimethylpiperidin-1-yl)-2,6-dimethylpyridin-3-yl)acetic acid], the EC50 (read-out: Activity) was < 0.1 µM.

Turning to `Cc1nc(C)c([C@H](OC(C)(C)C)C(=O)O)c(N2CCC(C)(C)CC2)c1-c1ccc2c(c1)CCN(Cc1c(F)cccc1Oc1ccccc1)C2` [Compound 159, (S)-2-(tert-butoxy)-2-(4-(4,4-dimethylpiperidin-1-yl)-5-(2-(2-fluoro-6-phenoxybenzyl)-1,2,3,4-tetrahydroisoquinolin-6-yl)-2,6-dimethylpyridin-3-yl)acetic acid], where the note is “read-out: Activity”, the EC50 is < 0.1 µM.

For `Cc1cc(OC(C)C)cc(C)c1CN1CCc2cc(-c3c(C)nc(C)c([C@H](OC(C)(C)C)C(=O)O)c3N3CCC(C)(C)CC3)ccc2C1` [Compound 160, (S)-2-(tert-butoxy)-2-(4-(4,4-dimethylpiperidin-1-yl)-5-(2-(4-isopropoxy-2,6-dimethylbenzyl)-1,2,3,4-tetrahydroisoquinolin-6-yl)-2,6-dimethylpyridin-3-yl)acetic acid], the EC50 (read-out: Activity) is < 0.1 µM.

`Cc1ccc(CN2CCc3cc(-c4c(C)nc(C)c([C@H](OC(C)(C)C)C(=O)O)c4N4CCC(C)(C)CC4)ccc3C2)cc1C` [Compound 161, (S)-2-(tert-butoxy)-2-(5-(2-(3,4-dimethylbenzyl)-1,2,3,4-tetrahydroisoquinolin-6-yl)-4-(4,4-dimethylpiperidin-1-yl)-2,6-dimethylpyridin-3-yl)acetic acid]: the EC50 (read-out: Activity) was < 0.1 µM.

With `Cc1nc(C)c([C@H](OC(C)(C)C)C(=O)O)c(N2CCC(C)(C)CC2)c1-c1ccc2c(c1)CCN(Cc1ccc(C3(C#N)CC3)cc1)C2` [Compound 162, (S)-2-(tert-butoxy)-2-(5-(2-(4-(1-cyanocyclopropyl)benzyl)-1,2,3,4-tetrahydroisoquinolin-6-yl)-4-(4,4-dimethylpiperidin-1-yl)-2,6-dimethylpyridin-3-yl)acetic acid], the EC50 (read-out: Activity) is < 0.1 µM.

As to `CCCCCCCCCOc1ccc(CN2CCc3cc(-c4c(C)nc(C)c([C@H](OC(C)(C)C)C(=O)O)c4N4CCC(C)(C)CC4)ccc3C2)cc1` [Compound 163, (S)-2-(tert-butoxy)-2-(4-(4,4-dimethylpiperidin-1-yl)-2,6-dimethyl-5-(2-(4-(nonyloxy)benzyl)-1,2,3,4-tetrahydroisoquinolin-6-yl)pyridin-3-yl)acetic acid], the EC50 by setting is: (read-out: Activity) < 0.1 µM; (read-out: EC50 μM) 0.076 µM.

As to `Cc1cccc(Cl)c1CN1CCc2cc(-c3cnc(C)c([C@H](OC(C)(C)C)C(=O)O)c3N3CCC(C)(C)CC3)ccc2C1` [Compound 164, (S)-2-(tert-Butoxy)-2-(5-(2-(2-chloro-6-methylbenzyl)-1,2,3,4-tetrahydroisoquinolin-6-yl)-4-(4,4-dimethylpiperidin-1-yl)-2-methylpyridin-3-yl)acetic acid], the EC50 (read-out: Activity) is < 0.1 µM and the EC50 (read-out: EC50 μM) was found to be 0.003 µM.

Regarding `Cc1ccccc1CN1CCc2cc(-c3cnc(C)c([C@H](OC(C)(C)C)C(=O)O)c3N3CCC(C)(C)CC3)ccc2C1` [Compound 165, (S)-2-(tert-Butoxy)-2-(4-(4,4-dimethylpiperidin-1-yl)-2-methyl-5-(2-(2-methylbenzyl)-1,2,3,4-tetrahydroisoquinolin-6-yl)pyridin-3-yl)acetic acid], the EC50 (read-out: Activity) is < 0.1 µM.

Turning to `Cc1cccc(Cl)c1CN1CCc2cc(-c3c(C)nc(C)c([C@H](OC(C)(C)C)C(=O)O)c3N3CCCC(C)(C)C3)ccc2C1` [Compound 166, (S)-2-(tert-butoxy)-2-(5-(2-(2-chloro-6-methylbenzyl)-1,2,3,4-tetrahydroisoquinolin-6-yl)-4-(3,3-dimethylpiperidin-1-yl)-2,6-dimethylpyridin-3-yl)acetic acid], the EC50 is, setting by setting: (read-out: Activity) < 0.1 µM; (read-out: EC50 μM) 0.023 µM.
